# In patent US9352030B2, “Mycobacterium antigenic composition” (priority 2010, dated 2016):
# B1: M72: fusion protein antigen comprising Rv1196, M72 with two N-terminal His residues, SEQ ID No: 7 (protein)
# chain: MHHTAASDNFQLSQGGQGFAIPIGQAMAIAGQIRSGGGSPTVHIGPTAFLGLGVVDNNGNGARVQRVVGSAPAASLGISTGDVITAVDGAPINSATAMADALNGHHPGDVISVTWQTKSGGTRTGNVTLAEGPPAEFMVDFGALPPEINSARMYAGPGSASLVAAAQMWDSVASDLFSAASAFQSVVWGLTVGSWIGSSAGLMVAAASPYVAWMSVTAGQAELTAAQVRVAAAAYETAYGLTVPPPVIAENRAELMILIATNLLGQNTPAIAVNEAEYGEMWAQDAAAMFGYAAATATATATLLPFEEAPEMTSAGGLLEQAAAVEEASDTAAANQLMNNVPQALQQLAQPTQGTTPSSKLGGLWKTVSPHRSPISNMVSMANNHMSMTNSGVSMTNTLSSMLKGFAPAAAAQAVQTAAQNGVRAMSSLGSSLGSSGLGGGVAANLGRAASVGSLSVPQAWAAANQAVTPAARALPLTSLTSAAERGPGQMLGGLPVGQMGARAGGGLSGVLRVPPRPYVMPHSPAAGDIAPPALSQDRFADFPALPLDPSAMVAQVGPQVVNINTKLGYNNAVGAGTGIVIDPNGVVLTNNHVIAGATDINAFSVGSGQTYGVDVVGYDRTQDVAVLQLRGAGGLPSAAIGGGVAVGEPVVAMGNSGGQGGTPRAVPGRVVALGQTVQASDSLTGAEETLNGLIQFDAAIQPGDAGGPVVNGLGQVVGMNTAAS
# modifications: M72 fusion with 2 additional his residues
# B2: Mtb72f: fusion protein antigen, Mtb72f with 6 his residues, SEQ ID No: 11 (protein)
# chain: MHHHHHHTAASDNFQLSQGGQGFAIPIGQAMAIAGQIRSGGGSPTVHIGPTAFLGLGVVDNNGNGARVQRVVGSAPAASLGISTGDVITAVDGAPINSATAMADALNGHHPGDVISVTWQTKSGGTRTGNVTLAEGPPAEFMVDFGALPPEINSARMYAGPGSASLVAAAQMWDSVASDLFSAASAFQSVVWGLTVGSWIGSSAGLMVAAASPYVAWMSVTAGQAELTAAQVRVAAAAYETAYGLTVPPPVIAENRAELMILIATNLLGQNTPAIAVNEAEYGEMWAQDAAAMFGYAAATATATATLLPFEEAPEMTSAGGLLEQAAAVEEASDTAAANQLMNNVPQALQQLAQPTQGTTPSSKLGGLWKTVSPHRSPISNMVSMANNHMSMTNSGVSMTNTLSSMLKGFAPAAAAQAVQTAAQNGVRAMSSLGSSLGSSGLGGGVAANLGRAASVGSLSVPQAWAAANQAVTPAARALPLTSLTSAAERGPGQMLGGLPVGQMGARAGGGLSGVLRVPPRPYVMPHSPAAGDIAPPALSQDRFADFPALPLDPSAMVAQVGPQVVNINTKLGYNNAVGAGTGIVIDPNGVVLTNNHVIAGATDINAFSVGSGQTYGVDVVGYDRTQDVAVLQLRGAGGLPSAAIGGGVAVGEPVVAMGNSGGQGGTPRAVPGRVVALGQTVQASDSLTGAEETLNGLIQFDAAIQPGDSGGPVVNGLGQVVGMNTAAS
# modifications: Mtb72f fusion with 6 additional his residues
# B3: Rv1196: Rv1196 protein (SEQ ID No: 1) from Mycobacterium tuberculosis H37Rv, obtained from Corixa Corporation (protein)
# chain: MVDFGALPPEINSARMYAGPGSASLVAAAQMWDSVASDLFSAASAFQSVVWGLTVGSWIGSSAGLMVAAASPYVAWMSVTAGQAELTAAQVRVAAAAYETAYGLTVPPPVIAENRAELMILIATNLLGQNTPAIAVNEAEYGEMWAQDAAAMFGYAAATATATATLLPFEEAPEMTSAGGLLEQAAAVEEASDTAAANQLMNNVPQALQQLAQPTQGTTPSSKLGGLWKTVSPHRSPISNMVSMANNHMSMTNSGVSMTNTLSSMLKGFAPAAAAQAVQTAAQNGVRAMSSLGSSLGSSGLGGGVAANLGRAASVGSLSVPQAWAAANQAVTPAARALPLTSLTSAAERGPGQMLGGLPVGQMGARAGGGLSGVLRVPPRPYVMPHSPAAG
# modifications: Mycobacterium tuberculosis H37Rv
# Legend:
# [1] = Conductivity determination (Malvern Zetasizer Nano); format: physicochemical
# Description: A range of standards having sodium chloride concentrations of 0, 75, 100, 150, 250 and 300 mM were prepared from a stock solution of 1500 mM sodium chloride by dilution in water for injection.
# Immunogenic compositions were prepared using M72 with two N-terminal His residues according to the procedures provided in Example 9. To investigate the contribution from the antigen itself and any residual materials in the purified bulk, placebo lyophilisation cakes were also prepared by excluding the antigen component.
# Using a Malvern Zetasizer Nano and 1.5 ml of each sample in folded capillary cells, a voltage of 30 to 150 V (determined automatically by the instrument) was applied and the conductivity determined.
# [2] = tested on: chicken Red Blood cells (RBC); test: QS21 lytic activity haemolysis assay (limit test); format: cell-based; settings: RBC 30 min RT, OD at 540 nm
# Description: QS21 lytic activity was measured by a haemolysis assay using chicken Red Blood cells (RBC). RBC were centrifuged at 550 g at 4° C. Supernatant was discarded. The pellet was carefully resuspended in PBS buffer to reach the initial volume and the same operation was repeated until supernatant was no longer red (generally 3 times). The pellet was stored at 4° C. for 3 to 4 days maximum if not used directly (and washed again the day it is used) or was diluted around 10 times in buffer if used the same day.
# A QS21 dose range curve was prepared in ASA buffer (in salt or in sorbitol buffer following the ASA sample tested) extemporaneously and the adjuvant samples (containing a 50 ug or 90 ug equivalent of QS21 meaning the equivalent of 500 ul or 900 ul ASA) were prepared. Final volume was adjusted to 900 ul in standards and samples with adequate buffer (containing or not sorbitol as a function of the buffer of the sample tested). Due to its opalescence, ASA interferes with optical density (OD). ASA “blanks” were thus prepared and their OD was subtracted from the OD of ASA tested samples. Those blanks corresponded to the same ASA volume as the volume tested in samples, but adjusted to 1 ml with buffer. No RBC were added to these blanks. Standards and samples were then incubated with RBC (100 ul of diluted RBC added to 900 ul of standards and samples) for 30 minutes at room temperature (RT). Samples were then centrifuged 5 minutes at 900 g. Optical density at 540 nm was measured after centrifugation.
# Determination of lytic activity was carried out by a limit test.
# 1. Limit of detection (LOD) was defined as the lowest concentration of QS21 leading to an OD: • Higher than the base level (OD>0.1) • Around three times higher than OD's buffer (the “0 ug” QS21) • In the ascendant part of the curve • Determined for each test.
# 2. QS21 lytic activity was held to be positive in the adjuvant samples if the OD for the adjuvant sample was greater than the ODLOD).
# [3] = format: physicochemical; settings: pH 7.5 or 8.5; sodium chloride 150 mM or greater
# [4] = tested on: M72-specific rabbit polyclonal antibody and M72(Mtb39)-specific mouse monoclonal antibody; test: M72 antigenicity sandwich ELISA, varied pH and NaCl (Example 10); format: binding; settings: pH 7.5 or 8.5; sodium chloride 150 mM or greater
# [5] = format: physicochemical; settings: 100 ug/ml; pH 6.1, 7.5, 8.5; 0, 150, 450 mM NaCl; 24 hours at 4° C. or 25° C.
# [6] = format: physicochemical; settings: 100 ug/ml; pH 6.1, 7.5, 8.5; 0, 150, 450 mM NaCl; 24 hours at 4° C. or 25° C.; remark: listed apart in the source
# [7] = Nephlometry of Rv1196 compositions with varied pH and NaCl after storage; format: physicochemical; settings: 100 ug/ml; pH 6.1, 7.5, 8.5; 0, 150, 450 mM NaCl; 24 hours at 4° C. or 25° C.
# Description: Rv1196 protein (SEQ ID No: 1) was obtained from Corixa Corporation and was diluted to a concentration of 100 ug/ml in three different buffers (10 mM phosphate buffer at pH 6.1, 20 mM Tris buffer at pH 7.5 and 20 mM Tris buffer at pH 8.5) containing final sodium chloride concentrations of 0, 150 and 450 mM.
# Samples were stored for 24 hours at 4° C. or 25° C. before analysis.
# Nephlometry was performed using a Nepheloskan® Ascent, available from Thermo Fischer Scientific. Analysis was performed in UV transparent Costar® micro-plates available from Corning Inc (USA).
# [8] = DLS of Rv1196 compositions with varied pH and NaCl after storage; format: physicochemical; settings: 100 ug/ml; pH 8.5
molecule,measurement,setting,value
[Cl-].[Na+] [sodium chloride],Conductivity,[1]; 75 mM sodium chloride standard in water for injection,8.2 mS/cm
same,Conductivity,[1]; 300 mM sodium chloride standard in water for injection,30.0 mS/cm
QS21,OD,[2]; 0.5 ug QS21 standard,0.052
same,OD,[2]; 0.6 ug QS21 standard,0.073
same,OD,[2]; 0.7 ug QS21 standard,0.091
same,OD,[2]; 0.8 ug QS21 standard,0.096
same,OD,[2]; 0.9 ug QS21 standard,0.12
B1,change in antigen size,[3],clear increase in antigen size
same,change in antigenicity,[4],reduction in antigenicity
B2,DLS size trend with salt concentration and pH,[5],sensitive to salt concentration and pH
same,nephlometry trend with salt concentration and pH,[6],sensitive to salt concentration and pH
B3,clarity by nephlometry with increasing salt concentration,[7],sensitive to salt concentration
same,particle size by DLS,[8],concentration of sodium chloride impacts the measured particle size
